Earlier results, collected in patent publication US20240335532A1, “NANOPARTICULATE FORMULATION” (NewImmune II, LLC, priority 2021, published 2024).
Like-named read-outs stand apart in the source and are kept apart here.

Tests used:
[1] = intravenous 0.5 to 5.0 mg/kg, dogs
influenza [2] = conditions: 50 μg intraperitoneally, with influenza vaccine, mice
[3] = mice
influenza [4] = conditions: topical pre-treatment, young and elderly individuals
[5] = 30 mg subcutaneous dose, healthy human volunteers
[6] = dermal exposure, mice
[7] = single subcutaneous dose, rats
[8] = 2000 and 5000 mg/kg under occlusion, rabbits
[9] = monkeys
[10] = intravenous 2 mg/kg/day, gestational Days 6-18, pregnant rabbits
[11] = rats

For CC(C)Cn1cnc2c(N)nc3ccccc3c21 [imiquimod, 1-(2-methylpropyl)imidazo[4,5-c]quinolin-4-amine], the “cardiovascular and nervous system effects” value [1] is given as “produced cardiac stimulation, central nervous system stimulation and some evidence of autonomic nervous system inhibition”, the “humoral immune responses against the virus” value (influenza [2]) is given as “significantly expedited and augmented” and the “protection against early lethal viral challenges” value (influenza [2]) is given as “conferred significant protection”. For the same molecule, the single dose toxicity [3] was “high degree of safety”, the “immunogenicity of influenza vaccination” value (influenza [4]) was “significantly improves the immunogenicity” and the tolerability [5] was “well tolerated”. For the same molecule, the “incidence of tumors or non-neoplastic lesions” value [6] was “no increase”, the “pH of maximum solubility in aqueous solution” value (Britton-Robinson buffer) was ≤ 2 and the aqueous solubility (above pH 6) was “only sparingly soluble”. For the same molecule, the “solubility in aqueous solution” value (physiological pH) was “very low solubility”, the subcutaneous lethal dose [7] was 20 mg/kg and the dermal toxicity [8] was “no deaths and no signs of toxicity other than mild transient erythema at the application site”. The single dose toxicity [9] was “high degree of safety”, the “embryofetal toxicity or teratogenicity” value [10] was “No treatment related effects” and the single dose toxicity [11] was “high degree of safety”.
